PMC3734263, “Fatty Acid Amide Hydrolase-Dependent Generation of Antinociceptive Drug Metabolites Acting on TRPV1 in the Brain” (PLoS ONE, 2013)

Experiments:
[1] = system: rats; assay: Formalin test, rat; type: in vivo; conditions: 4-aminophenol 10, 30 and 100 mg/kg i.p.
Description: (§1) The animals received an intraplantar injection of a 2.5% formalin solution (50 µl rat, 25 µl mouse) into a hind paw. The time spent biting and licking of the injected paw was monitored during the two typical phases of the nociceptive response (phase I: 0–5 min; phase II: 20–40 min in rats or 15–40 min in mice).

[2] = system: rats; conditions: 4-aminophenol three doses, data not shown
[3] = Global brain levels of endocannabinoids in the rat after 4-aminophenol; type: in vivo; conditions: 4-aminophenol 100 mg/kg i.p.; 15, 30, 45 and 60 min
Description: (§2) The whole brain was homogenized in ice-cold 10 mM Tris buffer (ml/g tissue) at pH 7.6. The buffer solution contained 1 mM EDTA, 0.3 mM ascorbic acid and 10 µM methylarachidonylfluorophosphonate (MAFP) to prevent degradation of AM404, arvanil, olvanil, anandamide and 2-arachidonoylglycerol. Aliquots (200 µl) of blood and homogenates were precipitated with 1 ml ice-cold acetone, containing AM404-D4 (5 nM) or anandamide-D8 (100 nM) as internal standard. After centrifugation at 25,200 g for 30 min at 4°C, the supernatants were collected in polypropylene tubes and vacuum evaporated. The protein content of the pellet was determined with Coomassie protein assay (Pierce; Illinois, USA), using bovine serum albumin as standard. […] Samples were analyzed on a Waters Aquity UPLC system coupled to a Sciex 5500 tandem mass spectrometer (LC-MS/MS; AB Sciex; Massachusetts, USA) or a Perkin Elmer 200 HPLC system coupled to an API 3000 tandem mass spectrometer (LC-MS-MS; Applied Biosystems/MDS-SCIEX).
Quantification of anandamide and 2-arachidonoylglycerol. Anandamide (m/z 348.2/62.0), anandamide-D8 (m/z 356.4/63.0) and 2-arachidonoylglycerol (m/z 379.2/287.0) were determined as previously described. Since 2-arachidonoylglycerol is non-enzymatically converted to 1-arachidonoylglycerol, the content of 2-arachidonoylglycerol was estimated as the sum of these lipids. […]

[4] = system: mice; assay: von Frey filament test, mouse; type: in vivo; conditions: 30 mg/kg i.p.
Description: Calibrated von Frey filaments (0.0045–5.4950 g) were used to induce light noxious mechanical stimulation in mice. Tests were commenced after one hour of habituation. Filaments of increasing stiffness were applied five times perpendicular to the plantar surface of the hindpaw and pressed until bending. The first filament that evoked at least three consecutive responses was assigned as the threshold (cut-off 2 g).

[5] = Contents of amines and lipid metabolites in blood and brain after i.p. injection in mice (LC-MS/MS); type: in vivo, mouse; conditions: mouse
Description: Twenty min after drug administration, the animals were anesthetized by CO2 (rats) or isoflurane (mice) inhalation and decapitated. The brain was removed from the skull and blood was collected in test tubes, containing 60 µl buffered citrate, and the tissues snap frozen in liquid nitrogen before storage at −70°C.
as §2
(§3) Quantification of AM404, HPODA, arvanil and olvanil. Samples were analyzed on a Waters Aquity UPLC system coupled to a Sciex 5500 tandem mass spectrometer. Sample aliquots of 5 µl were injected into an Acquity UPLC BEH C18 column (100 × 2 mm, 1.7 µm; Waters) held at 50°C. All mobile phases were water-acetonitrile gradients, containing 0.1% formic acid and using a flow rate of 400 µl/min. The acetonitrile content was initially 30%, then increased linearly to 100% over 7 min and kept at this level for 4 min, followed by an equilibration period at 30% for 2 min. The electrospray interface was operating in the positive ion mode at 550°C and the ion spray voltage was set to 5000 volts. The mass transitions (m/z) used were the following: 396.2/110.1 for AM404, 374.2/110.0 for HPODA, 400.2/114.0 for AM404-D4, 440.3/137.1 for arvanil and 418.3/137.1 for olvanil. The declustering potentials were between 96 and 130 volts and the collision energies between 25 and 41 volts.
Quantification of 4-aminophenol and HMBA. Sample aliquots of 5 µl were injected into a Hypercarb column (50 × 2.1 mm; Thermo). All mobile phases were water-acetonitrile gradients, containing 0.1% formic acid. The acetonitrile content was initially 2%, then increased linearly to […] over 5 min and then kept at 100% for 1 min, followed by an equilibration period at 2% for 1.5 min. The electrospray ion source was set at 550°C and used in the positive ion mode with an ion spray voltage of 5000. […] HMBA loses the amino group already in the source of the MS and therefore the mass transition used was 137.0/94.0. The declustering potentials were 100 and 90 volts and the collision energies 21 and 29 volts. No internal standard was used for these analyses.
The contents of the compounds were expressed either in moles or as normalized peak areas (nPA) and related to the protein content in the samples. The nPA was obtained by dividing the peak area of the analyte with the peak area for the internal standard in the same sample. The detection limits were calculated as the concentrations corresponding to three times the standard deviation of the blanks. When levels were below detection limit, numerical values of half the detection limit were used in the calculations.

[6] = system: mice; assay: Tail immersion test, mouse; type: in vivo; conditions: 30 mg/kg i.p.
Description: Tails of mice were submerged in a hot water bath (46°C) and the withdrawal latency recorded (cut-off 15 s). The mean of four baseline values were determined before drug administration.

[7] = system: mice; assay: Formalin test, mouse; type: in vivo; conditions: for formalin test phases: HMBA 100 mg/kg
Description: as §1

[8] = system: mice; assay: Spontaneous locomotor activity in actimetry boxes; type: in vivo, mouse; conditions: 10 min before test
Description: Mice were placed in actimetry boxes (Actisystem; Apelex, France) and spontaneous motor activity was assessed by determining the number of crossings of light beams during 15 min.

[9] = system: rats; assay: Paw pressure test, rat
Description: The behavioural tests were performed in a quiet room and evaluated by a single investigator in a blinded manner. Treatments and/or genotypes were randomized in blocks and the number of animals in each block corresponded to the number of treatments and/or genotypes compared. […] Each animal was exposed to only one treatment.
The rats were submitted to the paw pressure test, using an Ugo Basile analgesy meter with a probe tip diameter of 1 mm (Bioseb, France). Nociceptive thresholds, expressed in grams (g), were measured by applying an increasing pressure to the right hind paw until a squeak (vocalization thresholds) was obtained (cut-off 750 g). Two consecutive stable vocalisation threshold values were first obtained (baseline).
Intrathecal injections were performed on anaesthetised rats held in one hand by the pelvic girdle. A 25 gauge 1 inch needle connected to a 25 µl Hamilton syringe was then inserted into the subarachnoidal space between lumbar vertebrae L5 and L6 until a tail flick was elicited. The syringe was held in position for few seconds after the injection of a volume of 10 µl [49]. All injections were performed under isoflurane anaesthesia (4% induction, 2% maintenance).

[10] = system: rodents; conditions: doses not far from those eliciting antinociception in rodents; cited from earlier work
[11] = Formation of arvanil and olvanil in brain homogenates incubated with HMBA; type: in vitro ADME, rat; conditions: HMBA 100 µM, 60 min
Description: Rat brain homogenate were prepared, as previously described. Brains were homogenized in Tris buffer (10 mM, pH 7.6), containing ethylenediaminetetraacetic acid (EDTA; 1 mM), at volumes of 5–10 ml/g tissue. Experiments were carried out on aliquots of 200 µl homogenate at 37°C as further explained in the text. The reactions were stopped by adding 1 ml ice-cold acetone, containing 1 µM [^2H8]-anandamide. The samples were kept on ice until the acetone phase was vacuum evaporated.
as §3, with “The declustering potentials were between 96 and 130 volts and the collision energies between 25 and 41 volts.” left out

[12] = 20 min after 4-AP 30 mg/kg i.p.
[13] = 20 min after 4-AP 100 mg/kg i.p.

What does the source list for `Nc1ccc(O)cc1` [4-aminophenol]?
licking time in rat formalin test [1]: Only the highest dose reduced both phases; locomotor activity [2]: tolerated all three doses; global levels of the endocannabinoids anandamide and 2-arachidonoylglycerol in the rat brain [3]: did not affect the global levels; withdrawal threshold in von Frey test ([4]; FAAH+/+ mice): increased the withdrawal threshold; antinociception in von Frey test ([4]; FAAH−/− mice): failed to produce antinociception; antinociceptive activity in von Frey test ([4]; TRPV1−/− mice): lost; quotient between brain levels of 4-aminophenol and AM404 ([5]; 4-aminophenol 30 mg/kg i.p.): 223; quotient between brain levels of 4-aminophenol and HPODA ([5]; 4-aminophenol 30 mg/kg i.p.): 951; quotient between brain levels of 4-aminophenol and AM404 ([5]; 4-aminophenol 100 mg/kg i.p.): 1,547; quotient between brain levels of 4-aminophenol and HPODA ([5]; 4-aminophenol 100 mg/kg i.p.): 9,376; Blood 4-AP [5, 12]: 283 ± 15 nmol/g; Brain 4-AP [5, 12]: 91 nmol/g; Brain 4-AP ([5]; 20 min after 4-AP 30 mg/kg i.p., listed as 4-AP): 91 ± 12 nmol/g; Blood 4-AP [5, 13]: 878 ± 157 nmol/g; Brain 4-AP [5, 13]: 7470 ± 1720 nmol/g; latency time in tail immersion test ([6]; FAAH+/+ mice): increased; antinociception in tail immersion test ([6]; FAAH−/− mice): failed to produce antinociception; antinociceptive activity in tail immersion test ([6]; TRPV1−/− mice): lost; licking time in formalin test ([7]; 30 mg/kg i.p., FAAH+/+ mice): reduced the licking time during the first and second phases; antinociception in formalin test ([7]; 30 mg/kg i.p., FAAH−/− mice): failed to produce antinociception; antinociceptive activity in formalin test ([7]; 30 mg/kg i.p., TRPV1−/− mice): lost; locomotor activity ([8]; 4-aminophenol 10, 30 and 100 mg/kg i.p.): reduced locomotor activity after the highest dose; withdrawal threshold in rat paw pressure test ([9]; 100 mg/kg i.p., 15 and 30 min after administration): increased the withdrawal threshold; withdrawal threshold in rat paw pressure test ([9]; intermediate dose 30 mg/kg i.p.): effective only at 15 min; withdrawal threshold in rat paw pressure test ([9]; low dose 10 mg/kg i.p.): inactive; nephrotoxic effect after a single exposure [10]: renal tubular necrosis

What does the source list for `COc1cc(CN)ccc1O` [HMBA, 4-hydroxy-3-methoxybenzylamine]?
formation of N-acylamines in brain homogenates [11]: leads to the formation of arvanil and olvanil; formalin test phases ([7]; FAAH−/− mice): affected none of these phases; formalin test phases ([7]; wild-type mice): inhibited both the first and second phases; locomotor activity ([8]; HMBA 100, 200 and 300 mg/kg i.p.): only the dose of 100 mg/kg failed to affect locomotion
